Consider 87 molecules from a melting point compilation (Tetko et al.; mined from patent text by program, amines drawn as free bases though some values may be those of a salt).

Structures are written as SMILES.

A word on the melting point: it is the temperature, or range, at which the solid turns liquid. Molecule `CC(C)(C)OC(=O)NC1CCCOCC=CC2CC2(C(=O)NS(=O)(=O)C2CC2)NC(=O)C2CC(OC(=O)C3CCCCC3)CN2C1=O` (configuration not stated) showed a melting point of 128 to 130 °C.
In turn, `CCCCCC(=O)NCCCC(=NNC(N)=S)c1ccccc1` displayed a melting point of 125 to 127 °C.
In the case of `Cc1ccc(NC(=O)c2ccc(C(=O)Nc3ccccc3NC(=O)OC(C)(C)C)nc2)cc1Nc1nccc(-c2cccnc2)n1`, the melting point lay in the range of 186 to 187 °C.
As for `C=C(C(=O)OC)N(Cc1ccccc1NC(=O)C(F)(F)F)S(=O)(=O)c1ccc(OC)cc1`, the figure is 120 to 121 °C.
To `Cc1cc(C)c(C(=O)c2cc(C(C)(C)C)c(O)c(C(C)(C)C)c2)c(Cl)n1` belongs 109 to 110 °C.
As for `CS(=O)(=O)c1ccc(Cc2ccc3ccccc3c2O)cc1`, the figure is 144 to 145 °C; as for `CCOCC(=NO)C(C)(C)NOC(CNC(C)(C)C(C)=NO)Cn1ccnc1[N+](=O)[O-]` (configuration not stated), 129 to 130 °C; as for `CCCCCCCCCCCCCCCCCCSC(C)CCO` (configuration not stated), 35 to 38 °C.
Take `CC(N)c1ccc(C(=O)O)cc1` (configuration not stated): the melting point is above 300 °C.
To `CCOc1cc2cc(C(=O)O)cc(-c3ccnc(Cl)c3)c2cc1OCC` belongs above 250 °C; to `O=C(C1CCCCC1)N1c2ccc(F)cc2CCC1CN1CCN(c2ccccc2OCC(F)(F)F)CC1` (configuration not stated), 51 °C.
To `Cc1cc(=O)[nH]c2c1C(=O)CC(c1ccccc1Cl)C2` (configuration not stated) belongs 290 to 291 °C; to `CN(C)C=Nc1[nH]nc(Nc2cccc(Cl)c2)c1C#N`, above 260 °C.
As for `CC(C)c1ccc(C2(OC(=O)c3ccccc3)C(=O)c3ccccc3C2=O)c(O)c1`, the figure is 117 to 119 °C.
`O=C(O)c1cccc(C(=O)c2ccc(C3CCCCC3)cc2)c1` registered a melting point of 180 to 185 °C.
To `Cc1c(F)c(F)c(CNc2ccc(Cl)c(O)c2)c(F)c1F` belongs 52 °C; to `O=c1[nH]c2cc(Br)ccc2c(=O)n1Cc1ccc(I)cc1F`, 303 to 304 °C; to `Cc1nc2c(s1)N(C(=O)c1cnoc1C)CCCC2`, 117 to 118 °C.
To `CC(C)(C)OC(=O)CCc1ccc(-c2nc(=O)c3ccccc3s2)nc1C#N` belongs 196 to 197 °C.
As for `CCN(CC)c1ccc(C=O)c([N+](=O)[O-])c1`, the figure is 75 to 77 °C; as for `CS(=O)(=O)c1ccc(-c2cnn(CC(F)(F)F)c(=O)c2OCc2ccccc2)cc1`, 121 to 123 °C.
Molecule `CCOc1nn(-c2ccc(C(F)(F)F)cn2)cc1CCCOc1cccc(OC)c1CCC(=O)O` registered a melting point of 110 to 111 °C.
To `Cc1cc(CN2CC(=O)N(c3cnn(Cc4c(C)noc4C)c3)C2=O)n(C)n1` belongs 145 to 146 °C; to `OCC1OC(n2c(Cl)nc3cc(Cl)c(Cl)cc32)C(O)C1F` (configuration not stated), 238 °C; to `Cc1nc(Br)c2n1-c1ccc(Cl)cc1C(c1ccccc1F)=NC2`, 201 to 205 °C.
To `Nc1cc(C(=O)O)c(Cl)cc1F` belongs 153 to 155 °C; to `C#CCNC1CCc2ccc([N+](=O)[O-])cc21` (configuration not stated), 37 to 39 °C.
To `C#CC1N(C(=O)Oc2ccccc2)c2ccc(OCc3ccccc3[N+](=O)[O-])cc2C23OC12CCCC3=O` (configuration not stated) belongs 128 to 130 °C; to `Cn1cnc(COc2nn3c(-c4ccccc4F)nnc3cc2C2(C)CCOCC2)n1`, 154 °C; to `CCCCOc1c(CN2C(=O)c3ccccc3C2=O)n(CC2CC2)c(=O)c2ccc(Br)cc12`, 156 to 157 °C.
Take `Cc1onc(CCc2ccccc2)c1C(=O)O`: the melting point was in the range of 154 to 156 °C.
To `CN1CCN(c2cccc3c2C[C@H](NS(C)(=O)=O)CC3)CC1` belongs 135 to 137 °C.
To `COC(C(=O)O)c1nn(-c2ccccc2)c2c1CCC2` (configuration not stated) belongs 106 to 107 °C; to `Cc1noc2cc(OC3SCC(O)C(O)C3O)ccc12` (configuration not stated), 148 to 161 °C.
To `COC(=O)c1ccc(Nc2ccc(C(=O)OC)cc2)cc1` belongs 174 to 175 °C; to `Oc1cc(Br)cc(-c2ccc3nonc3c2)c1`, 179 to 181 °C; to `N#CC1(SCc2ccccc2)C2CC3CC(C2)CC1C3` (configuration not stated), 73 to 75 °C.
In turn, `CCCNC(=O)CCn1cnc2c(N)nc3ccccc3c21` yielded a melting point of 212 to 214 °C.
As for `COc1nc(C(F)(F)F)cc(=O)n1-c1ccc(Cl)c(OC(C)C)c1`, the figure is 55 to 58 °C; as for `CC(COc1cccc2oc(C#N)cc(=O)c12)OC=O` (configuration not stated), 113 to 115 °C.
As for `COc1ccc(C(C)=O)cc1S(N)(=O)=O`, the figure is 200 to 201 °C.
Molecule `Cc1cccc(C)c1CNc1cc(C(N)=O)cc2c1nc(C)n2C` yielded a melting point of 272 °C.
As for `O=S1(=O)CCC(c2ccccc2)(c2ccccc2)[C@@H]2CN(Cc3ccccc3)C[C@@H]21` (racemic), the figure is 186 °C.
As for `CC[C@@H]1N(c2ccc(C#N)c(Cl)c2C)C(=O)C[C@@]1(O)C1CC1`, the figure is 177 to 179 °C; as for `Clc1ccc(C23CCN(CC2)C3)cn1`, 70 to 72 °C; as for `CCCCc1nn(-c2cc(NC(=O)CC)ccc2Cl)c(=O)n1Cc1ccc(-c2ccccc2S(=O)(=O)NC(=O)c2cc(Cl)ccc2Cl)cc1F`, 169 to 172 °C.
Consider `CC(C)(C)OC(=O)N1CCC(Oc2cncc(Cl)n2)CC1`, for which the melting point is 86 to 87 °C.
To `CCOC(=O)c1cn(C)nc1Cl` belongs 65 to 66 °C.
To `Cc1oc(-c2ccccc2)nc1CCOc1ccc(Cn2cc(CCC(=O)O)c(-c3ccccc3)n2)cc1` belongs 142 to 143 °C.
As for `CCCc1c(OCc2ccc(C=CC(=O)O)cc2OC)ccc(C(C)=O)c1O`, the figure is 144 to 146 °C; as for `CC1(C)CC2(CC(C)(C)c3ccc(Oc4cccc([N+](=O)[O-])c4)cc32)c2cc(Oc3cccc([N+](=O)[O-])c3)ccc21`, 174 to 175 °C.
On to `COc1ccc(C[C@@H](CO)NC(=O)c2cccnc2Br)cc1OC`, for which the melting point lay within 136 to 138 °C.
Turning to `C=CCN(CC=C)c1cc(CCl)nc(N)n1`, the melting point fell in the range of 53 to 55 °C.
As for `CN(C)CC1=Cc2ccc(C(=O)Nc3ccc(Br)cc3)cc2CC1`, the figure is 175 to 179 °C.
To `S=C(NCCCC1(Cl)CC=CS1)Nc1ccccn1` (configuration not stated) belongs 116 to 122 °C.
As for `C=C(Cl)Cc1cc2c(C)cc(=O)oc2c(C)c1O`, the figure is 135 to 163 °C; as for `O=C1CC(c2cccc(-n3ccnc3)c2)=Nc2cc(N3C[C@@H](O)[C@@H](O)C3)c(-c3ccc(F)cc3)cc2N1`, 244 °C.
Molecule `Cc1nnc2n1N=C(c1ccc3c(c1)NC(=O)CO3)C(C)(C)S2` returned a melting point of 249 to 250 °C.
As for `CCN(c1nc(NCCO)nc(N(CC)C2CC(C)(C)NC(C)(C)C2)n1)C1CC(C)(C)NC(C)(C)C1`, the figure is 184 to 185 °C; as for `CCn1ncc2c(C(F)(F)F)cc(=O)[nH]c21`, 178 to 179 °C; as for `O=C1N[C@H](Cc2cccc(OC(F)(F)C(F)F)c2)[C@H](c2ccnc(F)c2)O1` (racemic), 118 to 119 °C.
Turning to `COc1ccc2c(c1OC(C)=O)N=CC1CCCN1C2=O` (configuration not stated), the melting point lay within 144 to 146 °C.
As for `N#Cc1cccc(C2=Nc3ccc(C=Cc4ccccc4)cc3NC(=O)C2)c1`, the figure is 185 to 188 °C.
The molecule `CNC(=O)C(CCn1c(COc2ccc(Cl)cc2)nc2c(C)cccc21)Cc1ccccc1` (configuration not stated) registered a melting point of 169 to 170 °C.
As for `COc1ccc2ccccc2c1[N+](=O)[O-]`, the figure is 129 to 130 °C.
`CCCc1c(OCC(O)CSc2nnc(SCC(=O)O)s2)ccc(C(C)=O)c1O` (configuration not stated): the melting point was 72 to 75 °C.
`CC(CN=C(c1ccccc1)c1ccccc1)N=C(c1ccccc1)c1ccccc1` (configuration not stated): the melting point fell in the range of 89 to 90 °C.
As for `COc1ccc(S(=O)(=O)c2cnoc2C(C)C)cc1`, the figure is 62 to 63.5 °C; as for `Cn1cc(-c2cccc(Cl)c2)c(=O)o1`, 131 °C; as for `COc1cc(C(F)(F)F)nn1-c1ccc(NC(=O)c2cccnc2F)cc1`, 153 to 154 °C.
As for `COc1ccccc1CNc1ccc2cc(Nc3nccc(C)n3)ccc2n1`, the figure is 125 °C; as for `Fc1ccc(-c2cc(N3CCN(CC4CC4)CC3)nc3c2CCCCCC3)cc1`, 109 to 110 °C; as for `CC(=O)OCc1cccc(NC(=O)c2nnn(Cc3ccc(Cl)c(Cl)c3)c2C)c1`, above 70 °C.
To `O=C(Nc1cccc(C(F)(F)F)c1)Nc1ccc2[nH]c(C(F)(F)F)nc2c1` belongs 213 to 215 °C; to `O=S(=O)(Nc1cccc2c(Cl)c[nH]c12)c1ccc(CCCn2ccnc2)cc1`, 86 to 90 °C; to `Cn1c(COc2cccc(C(=O)O)c2)nc2ccc(Oc3cccc(OC(F)(F)F)c3)cc21`, 221 to 227 °C.
Consider `COc1ccc(-c2cc(=O)n(CCC(=O)NCc3ccccc3)nc2-c2ccc(OC)cc2)cc1`, for which the melting point fell in the range of 135 to 137 °C.
As for `O=C(c1ccc(F)cc1F)C1CCN(CC2=Cc3ccccc32)CC1`, the figure is 70 °C; as for `CN1CCN2c3ccc([N+](=O)[O-])cc3C(c3cccs3)=NCC2C1` (configuration not stated), 174 to 175 °C.
To `COC(=O)c1cccc2nc(OC)n(Cc3ccc(-c4ccccc4C#N)cc3)c12` belongs 149 to 150 °C; to `CN1CCN(c2ccc(S(=O)(=O)Oc3ccccc3)c(Cl)c2[N+](=O)[O-])CC1`, 94 to 95 °C.
For the molecule `CCc1ccccc1-c1nc(-c2cccc(OC)c2)n[nH]1`, the melting point is 72 to 75 °C.
On to `CCOC(=O)c1c(-c2ccccc2C)c2cc(C)c(Cl)cc2[nH]c1=O`, for which the melting point fell in the range of 290 to 291 °C.
To `CC1(C)C(=O)N(Cc2ccccc2Cl)OC1Nc1ccccc1` (configuration not stated) belongs 99 to 101 °C; to `CCC1(CCCCCl)C(=O)Nc2ccc(F)cc21` (configuration not stated), 96 to 97 °C.
`COc1ccc(Cl)cc1C(O)C(N)=O` (configuration not stated) gave a melting point of 121 to 123 °C.
To `CCOP(=S)(OCC)Oc1nsc(C)c1C(N)=O` belongs 68 °C.
